Test results as given in ChEMBL document CHEMBL5291721, “A preclinical secondary pharmacology resource illuminates target-adverse drug reaction associations of marketed drugs” (Nat Commun, 2023).

How the values were obtained:
Adenosine receptor A1 = target: T1, Adenosine receptor A1 (Homo sapiens, UniProt P30542)
T1 sequence (P30542 whole entry): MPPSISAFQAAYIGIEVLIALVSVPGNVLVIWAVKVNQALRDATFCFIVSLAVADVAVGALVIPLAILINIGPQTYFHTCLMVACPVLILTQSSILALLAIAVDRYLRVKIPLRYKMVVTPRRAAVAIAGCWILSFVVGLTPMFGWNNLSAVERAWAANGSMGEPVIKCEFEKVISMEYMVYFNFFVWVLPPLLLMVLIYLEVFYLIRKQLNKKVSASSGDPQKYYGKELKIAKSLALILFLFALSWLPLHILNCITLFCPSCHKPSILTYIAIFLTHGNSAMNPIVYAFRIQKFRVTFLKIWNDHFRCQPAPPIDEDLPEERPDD

Vasopressin V2 receptor = Vasopressin V2 receptor (Homo sapiens, UniProt P30518)
[1] = target: T2, Muscarinic acetylcholine receptor M2 (Homo sapiens, UniProt P08172); assay type: functional, cell-based
T2 sequence (P08172 whole entry): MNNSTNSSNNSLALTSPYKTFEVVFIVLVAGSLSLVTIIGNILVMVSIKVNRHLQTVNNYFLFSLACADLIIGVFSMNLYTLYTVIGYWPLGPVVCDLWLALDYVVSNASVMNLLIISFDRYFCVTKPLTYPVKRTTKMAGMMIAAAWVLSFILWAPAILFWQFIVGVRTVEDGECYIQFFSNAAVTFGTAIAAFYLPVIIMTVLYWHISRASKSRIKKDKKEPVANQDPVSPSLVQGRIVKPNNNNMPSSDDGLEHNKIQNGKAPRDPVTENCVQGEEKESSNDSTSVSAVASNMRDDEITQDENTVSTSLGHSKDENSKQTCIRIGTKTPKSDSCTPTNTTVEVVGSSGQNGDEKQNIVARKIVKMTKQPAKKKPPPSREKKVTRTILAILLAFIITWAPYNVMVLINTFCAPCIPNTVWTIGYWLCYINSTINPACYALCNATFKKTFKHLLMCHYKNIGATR

[2] = target: Growth hormone secretagogue receptor type 1 (Homo sapiens, UniProt Q92847)
Motilin receptor = Motilin receptor (Homo sapiens, UniProt O43193)
Glucocorticoid receptor = target: T3, Glucocorticoid receptor (Homo sapiens, UniProt P04150)
T3 sequence (P04150 whole entry): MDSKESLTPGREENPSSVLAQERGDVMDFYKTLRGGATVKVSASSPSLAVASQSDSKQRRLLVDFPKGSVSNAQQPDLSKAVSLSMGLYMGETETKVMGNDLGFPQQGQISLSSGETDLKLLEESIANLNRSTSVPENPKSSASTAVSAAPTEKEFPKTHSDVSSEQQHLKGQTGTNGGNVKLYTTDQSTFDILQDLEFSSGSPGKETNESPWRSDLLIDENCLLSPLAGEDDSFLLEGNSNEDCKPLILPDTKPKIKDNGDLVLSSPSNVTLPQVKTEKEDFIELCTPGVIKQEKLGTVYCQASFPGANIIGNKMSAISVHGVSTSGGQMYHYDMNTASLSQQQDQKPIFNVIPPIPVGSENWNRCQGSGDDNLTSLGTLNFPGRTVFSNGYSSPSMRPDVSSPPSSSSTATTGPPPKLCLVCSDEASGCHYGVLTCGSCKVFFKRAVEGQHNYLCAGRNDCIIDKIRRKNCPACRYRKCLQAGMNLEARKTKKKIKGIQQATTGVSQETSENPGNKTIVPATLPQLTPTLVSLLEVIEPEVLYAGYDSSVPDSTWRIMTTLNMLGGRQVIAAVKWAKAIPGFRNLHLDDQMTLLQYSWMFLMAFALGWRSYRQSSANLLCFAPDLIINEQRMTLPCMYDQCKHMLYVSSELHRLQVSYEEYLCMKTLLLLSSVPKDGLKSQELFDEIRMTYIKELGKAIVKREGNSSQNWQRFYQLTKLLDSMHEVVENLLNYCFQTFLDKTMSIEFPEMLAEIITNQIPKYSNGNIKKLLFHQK

Thromboxane A2 receptor = target: T4, Thromboxane A2 receptor (Homo sapiens, UniProt P21731)
T4 sequence (P21731 whole entry): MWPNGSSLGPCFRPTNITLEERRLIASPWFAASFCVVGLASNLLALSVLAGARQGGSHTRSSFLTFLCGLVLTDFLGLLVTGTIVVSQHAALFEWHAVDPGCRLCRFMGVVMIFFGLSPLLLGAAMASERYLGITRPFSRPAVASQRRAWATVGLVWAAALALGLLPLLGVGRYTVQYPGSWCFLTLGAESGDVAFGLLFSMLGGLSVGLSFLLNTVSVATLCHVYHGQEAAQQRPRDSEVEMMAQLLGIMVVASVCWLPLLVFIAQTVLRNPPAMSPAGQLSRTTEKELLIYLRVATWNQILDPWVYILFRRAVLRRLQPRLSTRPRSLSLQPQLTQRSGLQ

D(3) dopamine receptor = D(3) dopamine receptor (Homo sapiens, UniProt P35462)
[3] = target: T5, Alpha-1A adrenergic receptor (Homo sapiens, UniProt P35348); assay type: functional, cell-based
T5 sequence (P35348 whole entry): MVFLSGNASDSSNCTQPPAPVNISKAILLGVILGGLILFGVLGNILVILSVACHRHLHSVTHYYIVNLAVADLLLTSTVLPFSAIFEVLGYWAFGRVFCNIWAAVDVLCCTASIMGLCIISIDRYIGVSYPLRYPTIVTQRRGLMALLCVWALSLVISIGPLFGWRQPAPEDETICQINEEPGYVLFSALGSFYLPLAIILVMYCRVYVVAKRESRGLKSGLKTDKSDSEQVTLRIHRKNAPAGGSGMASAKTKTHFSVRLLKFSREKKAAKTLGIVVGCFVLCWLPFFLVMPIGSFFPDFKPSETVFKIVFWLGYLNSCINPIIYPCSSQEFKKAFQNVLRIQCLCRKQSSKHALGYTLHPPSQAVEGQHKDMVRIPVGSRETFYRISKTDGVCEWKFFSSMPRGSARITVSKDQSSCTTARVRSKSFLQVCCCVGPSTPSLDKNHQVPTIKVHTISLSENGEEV

[4] = target: T5, Alpha-1A adrenergic receptor; assay type: functional, cell-based; remark: listed apart in the source
Histamine H3 receptor = Histamine H3 receptor (Homo sapiens, UniProt Q9Y5N1)
Note: assay procedure not described here.

Sequence of Vasopressin V2 receptor (P30518 whole entry): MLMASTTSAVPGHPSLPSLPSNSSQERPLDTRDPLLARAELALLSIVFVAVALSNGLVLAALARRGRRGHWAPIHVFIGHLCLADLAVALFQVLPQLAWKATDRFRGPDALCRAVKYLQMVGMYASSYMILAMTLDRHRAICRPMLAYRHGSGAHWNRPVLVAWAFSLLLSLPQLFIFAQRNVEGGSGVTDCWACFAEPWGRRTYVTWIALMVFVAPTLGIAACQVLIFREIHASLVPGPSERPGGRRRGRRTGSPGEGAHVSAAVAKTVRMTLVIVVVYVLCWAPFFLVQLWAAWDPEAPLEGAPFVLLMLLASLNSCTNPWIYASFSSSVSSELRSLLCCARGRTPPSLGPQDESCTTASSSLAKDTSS
Sequence of Histamine H3 receptor (Q9Y5N1 whole entry): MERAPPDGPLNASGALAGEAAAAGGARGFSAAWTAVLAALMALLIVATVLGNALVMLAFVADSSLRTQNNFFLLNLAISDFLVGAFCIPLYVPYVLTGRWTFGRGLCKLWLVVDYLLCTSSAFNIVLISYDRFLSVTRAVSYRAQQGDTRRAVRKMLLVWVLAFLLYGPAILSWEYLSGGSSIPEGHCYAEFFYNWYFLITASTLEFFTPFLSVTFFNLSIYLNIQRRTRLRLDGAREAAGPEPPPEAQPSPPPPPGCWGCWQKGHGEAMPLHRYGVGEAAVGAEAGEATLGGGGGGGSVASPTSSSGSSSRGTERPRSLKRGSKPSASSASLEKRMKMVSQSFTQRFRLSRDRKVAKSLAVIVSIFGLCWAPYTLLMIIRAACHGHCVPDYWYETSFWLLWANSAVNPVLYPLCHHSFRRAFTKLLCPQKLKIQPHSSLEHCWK
Sequence of D(3) dopamine receptor (P35462 whole entry): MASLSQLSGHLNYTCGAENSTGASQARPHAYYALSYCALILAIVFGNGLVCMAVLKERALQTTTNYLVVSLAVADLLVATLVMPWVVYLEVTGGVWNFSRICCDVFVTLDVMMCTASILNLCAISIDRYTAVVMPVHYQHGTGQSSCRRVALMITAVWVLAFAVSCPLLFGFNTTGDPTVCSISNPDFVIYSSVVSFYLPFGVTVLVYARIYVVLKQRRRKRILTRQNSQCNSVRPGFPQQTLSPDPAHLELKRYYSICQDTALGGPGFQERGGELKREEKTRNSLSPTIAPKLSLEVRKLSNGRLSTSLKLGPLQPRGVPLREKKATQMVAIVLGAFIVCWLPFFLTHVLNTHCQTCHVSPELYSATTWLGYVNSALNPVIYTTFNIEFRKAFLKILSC
Sequence of Motilin receptor (O43193 whole entry): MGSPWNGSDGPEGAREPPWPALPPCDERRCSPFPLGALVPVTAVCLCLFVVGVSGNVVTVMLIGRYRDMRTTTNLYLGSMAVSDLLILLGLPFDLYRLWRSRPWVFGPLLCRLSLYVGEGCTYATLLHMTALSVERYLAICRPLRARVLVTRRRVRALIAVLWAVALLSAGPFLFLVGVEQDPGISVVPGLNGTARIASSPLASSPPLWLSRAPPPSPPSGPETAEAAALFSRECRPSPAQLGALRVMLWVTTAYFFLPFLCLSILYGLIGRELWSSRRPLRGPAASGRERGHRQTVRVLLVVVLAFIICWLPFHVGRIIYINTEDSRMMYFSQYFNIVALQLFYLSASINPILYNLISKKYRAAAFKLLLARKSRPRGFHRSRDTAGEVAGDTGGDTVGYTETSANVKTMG
Sequence of Growth hormone secretagogue receptor type 1 (Q92847 whole entry): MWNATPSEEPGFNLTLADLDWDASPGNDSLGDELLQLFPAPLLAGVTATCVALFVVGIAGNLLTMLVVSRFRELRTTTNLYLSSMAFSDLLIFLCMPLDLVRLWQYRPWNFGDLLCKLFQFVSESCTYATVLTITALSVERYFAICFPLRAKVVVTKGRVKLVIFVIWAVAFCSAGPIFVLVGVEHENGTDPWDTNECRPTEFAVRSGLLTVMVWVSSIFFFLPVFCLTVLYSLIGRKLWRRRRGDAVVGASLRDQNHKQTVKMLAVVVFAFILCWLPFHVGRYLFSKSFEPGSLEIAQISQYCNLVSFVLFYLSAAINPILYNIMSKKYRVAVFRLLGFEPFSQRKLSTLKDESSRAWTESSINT

| Structure (SMILES) | AC50 (Adenosine receptor A1) | AC50 (Vasopressin V2 receptor) | AC50 [1] | AC50 [2] | AC50 (Motilin receptor) | AC50 (Glucocorticoid receptor) | AC50 (Thromboxane A2 receptor) | AC50 (D(3) dopamine receptor) | AC50 [3] | AC50 [4] | AC50 (Histamine H3 receptor) |
| --- | --- | --- | --- | --- | --- | --- | --- | --- | --- | --- | --- |
| CNCC[C@H](Oc1cccc2ccccc12)c1cccs1 [DULOXETINE] | > 30 µM | > 30 µM | > 10 µM | 14.7 µM | 5.3 µM | > 30 µM | > 30 µM | 4.6 µM | – | – | – |
| Nc1nc(O)c2ncn(COC(CO)CO)c2n1 [GANCICLOVIR] | > 30 µM | > 30 µM | > 30 µM | > 30 µM | > 30 µM | > 30 µM | > 30 µM | > 30 µM | > 30 µM | > 30 µM | > 30 µM |
| Cc1cnc(NC(=O)C2=C(O)c3ccccc3S(=O)(=O)N2C)s1 [MELOXICAM] | > 30 µM | > 30 µM | > 10 µM | > 30 µM | > 10 µM | > 30 µM | > 30 µM | > 10 µM | > 30 µM | > 30 µM | > 10 µM |
| CC[C@@H](CO)NC(=O)[C@@H]1C=C2c3cccc4[nH]cc(c34)C[C@H]2N(C)C1 [METHYLERGONOVINE] | > 30 µM | > 30 µM | > 30 µM | > 30 µM | > 30 µM | > 30 µM | > 30 µM | 0.29 µM | 0.02 µM | – | > 30 µM |
| CNCCC=C1c2ccccc2CCc2ccccc21 [NORTRIPTYLINE] | > 30 µM | > 30 µM | 1.9 µM | > 30 µM | > 30 µM | > 30 µM | > 30 µM | – | > 30 µM | 0.036 µM | > 30 µM |
| CN(C)c1cc(CNCC(C)(C)C)c(O)c2c1C[C@H]1C[C@H]3[C@H](N(C)C)C(O)=C(C(N)=O)C(=O)[C@@]3(O)C(O)=C1C2=O [OMADACYCLINE] | > 30 µM | > 30 µM | 24.3 µM | > 30 µM | > 30 µM | > 30 µM | – | 27 µM | > 30 µM | > 30 µM | 24 µM |
| CC(C)C[C@H](CN)CC(=O)O [PREGABALIN] | > 30 µM | > 30 µM | > 30 µM | > 30 µM | > 30 µM | > 30 µM | > 30 µM | > 30 µM | – | – | > 30 µM |
| NC(=O)c1ncn([C@@H]2O[C@H](CO)[C@@H](O)[C@H]2O)n1 [RIBAVIRIN] | – | > 10 µM | > 10 µM | > 10 µM | > 10 µM | > 10 µM | > 10 µM | > 30 µM | > 30 µM | > 30 µM | > 10 µM |
| CCCN(CCC)CCc1cccc2c1CC(=O)N2 [ROPINIROLE] | > 30 µM | > 30 µM | 23 µM | > 30 µM | > 30 µM | > 30 µM | > 30 µM | – | 6.93 µM | > 30 µM | 9.25 µM |
